Reference: patent publication US12319663B2, “Alkene-containing amide compound and application thereof” (SHENYANG SINOCHEM AGROCHEMICALS R&D CO., LTD., priority 2019, dated 2025)

Tests used:
Type in all cases: in vivo
[1] = tested on: green bristlegrass; assay: Herbicidal activity, post-emergence stem and leaf spray, greenhouse: green bristlegrass control
Protocol: (§1) Seeds of broadleaf weeds (zinnia and piemarker) or grassy weeds (green bristlegrass and barnyard grass) are respectively sown in a paper cup having a diameter of 7 cm and containing nutrient soil; after sowing, the seeds are covered with 1 cm of soil; the soil is pressed and watered, and then the seeds are cultivated in a greenhouse according to a conventional method; and stems and leaves are sprayed after 2-3 leaf stage of the weeds.
(§2) After the original medicinal acetone was dissolved, the test requires to use 1% of Tween 80 to stand in running water to prepare the solution to be tested with a required concentration. According to the design dose of the test, spray treatment was carried out on a track-type crop sprayer (designed and produced by British Engineer Research Ltd.) (spray pressure is 1.95 kg/cm^2, spray volume is 50 L/hm^2 and track speed is 1.48 km/h). The test was repeated for three times. The test material was treated and then placed in an operation hall. The medicinal liquid was naturally dried in the shade, and then was placed in a greenhouse and managed according to the conventional method, The response of the weeds to the drug was observed and recorded, After treatment, the control effects of the test drug on the weeds were visually inspected regularly, expressed by 0-100%. “0” represents no control effect and “100%” represents complete killing.
According to the above test method, part of the compounds of the formula I and KC are selected for the activity test of controlling the green bristlegrass.

[2] = tested on: piemarker; assay: Herbicidal activity, post-emergence stem and leaf spray, greenhouse: piemarker control
Protocol: as §1, §2
According to the above test method, part of the compounds of the formula I and KC are selected for activity test of controlling the piemarker. […]

[3] = tested on: barnyard grass; assay: Herbicidal activity, post-emergence stem and leaf spray, greenhouse: barnyard grass control
Protocol: as §1, §2
According to the above test method, part of the compounds of the formula I and KC are selected for the activity test of controlling the barnyard grass.

[4] = tested on: zinnia; assay: Herbicidal activity, post-emergence stem and leaf spray, greenhouse: zinnia control; details: visual, 0 = no control effect, 100% = complete killing
Protocol: as §1, §2
According to the above test method, part of the compounds of the formula I and KC are selected for activity test of controlling the zinnia.

[5] = dose 37.5 g a.i./hm2, post-emergence stem and leaf spray
[6] = dose 150 g a.i./hm2, post-emergence stem and leaf spray

Cn1nnnc1N(C(=O)c1ccccc1)C(=O)c1ccc(C(F)(F)F)cc1S(C)(=O)=O [KC, reference compound]
Green bristlegrass control activity (after emergence, control effect %) [1, 5]: 45%
Green bristlegrass control activity (after emergence, control effect %) [1, 6]: 70%
Piemarker control activity (after emergence, control effect %) [2, 5]: 60%
Piemarker control activity (after emergence, control effect %) [2, 6]: 85%
Barnyard grass control activity (after emergence, control effect %) [3, 5]: 50%
Barnyard grass control activity (after emergence, control effect %) [3, 6]: 65%
Zinnia control activity (after emergence, control effect %) ([4]; dose 37.5 g a.i./hm^2): 65%
Zinnia control activity (after emergence, control effect %) ([4]; dose 150 g a.i./hm^2): 90%
